From patent publication US20070155772A1, “Use of genetic polymorphisms that associate with efficacy of treatment of inflammatory disease” (priority 2003, published 2007)
Several values for one entry are separate records, joined by “and”; a condition that tells them apart may be missing. Equal entries are not always repeated.

How the values were obtained:
[1] = tested on: pediatric subjects with moderate atopic dermatitis; experiment: Phase IIIb trial, severity of pruritus score on day 43; format: in vivo, human
From the text: The genetic locus was identified in a Phase IIIb trial that was designed as a head to head comparison of pimecrolimus cream 1% and tacrolimus ointment 0.03%. The six-week investigator-blinded trial of pediatric subjects with moderate atopic dermatitis explored the incidence of local application site reactions induced by the two topical macrolactams, as well as their efficacy, safety and cosmetic acceptability. Blood samples for pharmacogenetic analysis were collected from consenting participants in the clinical trial, to define a genetic basis for response to either treatment.
(§1) Statistical analysis. Investigator global assessment (IGA) scores were used as the primary marker of efficacy in the pharmacogenetic studies. IGA scores at the end of the Investigator Blinded phase of the trial (Day 43) were used as the main time-point for comparison. Last observation carried forward imputations were only required for one subject at day 43. In this case, there was no IGA score available after Day 29, and the score on this day was used in place of a day 43 IGA score. IGA scores were re-coded, as was done to assess efficacy in the trial itself. An IGA score of 0 or 1 was considered successful treatment and IGA scores of 2-5 were counted as treatment failure. The severity of pruritus was also used as a marker of efficacy. Pruritus scores were dichotomized into absence (score=0) or presence (score=1, 2 or 3) of pruritus. The fisher's exact model was employed to examine the genotype effect on each efficacy variable. All statistical analyses were done using SAS version 8.2 software.
Association between polymorphic markers and relief from pruritus. A secondary efficacy variable used in the trial was pruritus. An analysis was done to see if ASN60THR LTA and (−1031) TNF associated with this efficacy variable (assessed on day 43).

[2] = tested on: pediatric subjects with moderate atopic dermatitis; experiment: Phase IIIb trial, efficacy by Investigator global assessment (IGA) score on day 43; format: in vivo, human; details: for Efficacy (IGA): number of patients that experienced efficacy / Efficacy (IGA): percent of patients that experienced efficacy: IGA score of 0 or 1 on day 43
From the text: as §1, with “The genetic locus was identified in a Phase IIIb trial that was designed as a head to head comparison of pimecrolimus cream 1% and tacrolimus ointment 0.03%. The six-week investigator-blinded trial of pediatric subjects with moderate atopic dermatitis explored the incidence of local application site reactions induced by the two topical macrolactams, as well as their efficacy, safety and cosmetic acceptability. Blood samples for pharmacogenetic analysis were collected from consenting participants in the clinical trial, to define a genetic basis for response to either treatment. Statistical” for “Statistical”

[3] = (−1031) TNF genotype CC, day 43
[4] = (−1031) TNF genotype CT, day 43
[5] = (−1031) TNF genotype TT, day 43
[6] = ASN60THR LTA genotype AA, day 43
[7] = ASN60THR LTA genotype AC, day 43
[8] = ASN60THR LTA genotype CC, day 43
[9] = all (−1031) TNF genotypes, day 43
[10] = all ASN60THR LTA genotypes, day 43
[11] = patients with a C allele (CC or CT) at (−1031) TNF, day 43
[12] = VAL63ILE CCR2 (TWT# 47987) genotype AG, day 43
[13] = VAL63ILE CCR2 (TWT# 47987) genotype GG, day 43
[14] = all VAL63ILE CCR2 genotypes, day 43

## CC[C@@H]1/C=C(\C)C[C@H](C)C[C@H](OC)[C@H]2O[C@@](O)(C(=O)C(=O)N3CCCC[C@H]3C(=O)O[C@H](/C(C)=C/[C@@H]3CC[C@H](Cl)[C@H](OC)C3)[C@H](C)[C@@H](O)CC1=O)[C@H](C)C[C@@H]2OC [pimecrolimus]
[1]; Pharmacogenomics samples
  Pruritus (day 43) score 0, percent of subjects: 10%
  Pruritus (day 43) score 1, number of subjects: 14
  Pruritus (day 43) score 1, percent of subjects: 67%
  Pruritus (day 43) score 2, number of subjects: 3
  Pruritus (day 43) score 2, percent of subjects: 14%
  Pruritus (day 43) score 3, number of subjects: 2
  Pruritus (day 43) score 3, percent of subjects: 10%
[1]; Trial subjects
  Pruritus (day 43) score 0, number of subjects: 9
  Pruritus (day 43) score 0, percent of subjects: 13%
  Pruritus (day 43) score 1, number of subjects: 35
  Pruritus (day 43) score 1, percent of subjects: 49%
  Pruritus (day 43) score 2, number of subjects: 15
  Pruritus (day 43) score 2, percent of subjects: 21%
  Pruritus (day 43) score 3, number of subjects: 10
  Pruritus (day 43) score 3, percent of subjects: 14%
[2]; [3]
  No success (IGA ≧ 2), number of individuals: 1
  No success (IGA ≧ 2), percent: 100%
  Success (IGA = 0 or 1), number of individuals: 0 (0%)
  Success (IGA = 0 or 1), percent: 0 (0%)
[2]; [4]
  No success (IGA ≧ 2), number of individuals: 9
  No success (IGA ≧ 2), percent: 100%
  Success (IGA = 0 or 1), number of individuals: 0
  Success (IGA = 0 or 1), percent: 100%
[2]; [5]
  No success (IGA ≧ 2), number of individuals: 4
  No success (IGA ≧ 2), percent: 33%
  Success (IGA = 0 or 1), number of individuals: 8
  Success (IGA = 0 or 1), percent: 67%
[2]; [6]
  No success (IGA ≧ 2), number of individuals: 0 (0%)
  No success (IGA ≧ 2), percent: 0 (0%)
  Success (IGA = 0 or 1), number of individuals: 3/3 and 3
  Success (IGA = 0 or 1), percent: 100%
[2]; [7]
  No success (IGA ≧ 2), number of individuals: 6
  No success (IGA ≧ 2), percent: 60%
  Success (IGA = 0 or 1), number of individuals: 4/10 and 4
  Success (IGA = 0 or 1), percent: 40%
[2]; [8]
  No success (IGA ≧ 2), number of individuals: 8
  No success (IGA ≧ 2), percent: 89%
  Success (IGA = 0 or 1), number of individuals: 1
  Success (IGA = 0 or 1), percent: 11%
[2]; LTB (TWT#128095) genotype AC
  No success (IGA ≧ 2), number of individuals: 0
  No success (IGA ≧ 2), percent: 50%
  Success (IGA = 0 or 1), number of individuals: 1
  Success (IGA = 0 or 1), percent: 100%
[2]; LTB (TWT#128095) genotype CC
  No success (IGA ≧ 2), number of individuals: 12
  No success (IGA ≧ 2), percent: 63%
  Success (IGA = 0 or 1), number of individuals: 7
  Success (IGA = 0 or 1), percent: 37%
[2]; Pharmacogenomics samples
  Efficacy (IGA): number of patients that experienced efficacy: 8
  Efficacy (IGA): percent of patients that experienced efficacy: 36%
[2]; Trial subjects
  Efficacy (IGA): number of patients that experienced efficacy: 22
  Efficacy (IGA): percent of patients that experienced efficacy: 32%
[2]; [9]
  No success (IGA ≧ 2), number of individuals, Total: 14
  Success (IGA = 0 or 1), number of individuals, Total: 8
[2]; [10]
  No success (IGA ≧ 2), number of individuals, Total: 13
  Success (IGA = 0 or 1), number of individuals, Total: 7
[2]; all LTB (TWT#128095) genotypes
  No success (IGA ≧ 2), number of individuals, Total: 12
  Success (IGA = 0 or 1), number of individuals, Total: 8
[2]; [11]
  subjects that responded to treatment (IGA): None and No patient
  success / response rate (IGA): 0%

## C=CC[C@@H]1/C=C(\C)C[C@H](C)C[C@H](OC)[C@H]2O[C@@](O)(C(=O)C(=O)N3CCCC[C@H]3C(=O)O[C@H](/C(C)=C/[C@@H]3CC[C@@H](O)[C@H](OC)C3)[C@H](C)[C@@H](O)CC1=O)[C@H](C)C[C@@H]2OC [tacrolimus]
[1]; Pharmacogenomics samples
  Pruritus (day 43) score 0, number of subjects: 5
  Pruritus (day 43) score 0, percent of subjects: 20%
  Pruritus (day 43) score 1, number of subjects: 10
  Pruritus (day 43) score 1, percent of subjects: 40%
  Pruritus (day 43) score 2, number of subjects: 7
  Pruritus (day 43) score 2, percent of subjects: 28%
  Pruritus (day 43) score 3, number of subjects: 3
  Pruritus (day 43) score 3, percent of subjects: 12%
[1]; Trial subjects
  Pruritus (day 43) score 0, number of subjects: 11
  Pruritus (day 43) score 0, percent of subjects: 16%
  Pruritus (day 43) score 1, number of subjects: 35
  Pruritus (day 43) score 1, percent of subjects: 50%
  Pruritus (day 43) score 2, number of subjects: 19
  Pruritus (day 43) score 2, percent of subjects: 27%
  Pruritus (day 43) score 3, number of subjects: 3
  Pruritus (day 43) score 3, percent of subjects: 4%
[2]; [3]
  No success (IGA ≧ 2), number of individuals: 1
  No success (IGA ≧ 2), percent: 50%
  Success (IGA = 0 or 1), number of individuals: 1
  Success (IGA = 0 or 1), percent: 50%
[2]; [4]
  No success (IGA ≧ 2), number of individuals: 2
  No success (IGA ≧ 2), percent: 40%
  Success (IGA = 0 or 1), number of individuals: 3
  Success (IGA = 0 or 1), percent: 60%
[2]; [5]
  No success (IGA ≧ 2), number of individuals: 8
  No success (IGA ≧ 2), percent: 47%
  Success (IGA = 0 or 1), number of individuals: 9
  Success (IGA = 0 or 1), percent: 53%
[2]; [6]
  No success (IGA ≧ 2), number of individuals: 3
  No success (IGA ≧ 2), percent: 43%
  Success (IGA = 0 or 1), number of individuals: 4
  Success (IGA = 0 or 1), percent: 57%
[2]; [7]
  No success (IGA ≧ 2), number of individuals: 4
  No success (IGA ≧ 2), percent: 40%
  Success (IGA = 0 or 1), number of individuals: 6
  Success (IGA = 0 or 1), percent: 60%
[2]; [8]
  No success (IGA ≧ 2), number of individuals: 4
  No success (IGA ≧ 2), percent: 57%
  Success (IGA = 0 or 1), number of individuals: 3
  Success (IGA = 0 or 1), percent: 42%
[2]; LTB (TWT#128095) genotype AC
  No success (IGA ≧ 2), number of individuals: 3
  No success (IGA ≧ 2), percent: 60%
  Success (IGA = 0 or 1), number of individuals: 2
  Success (IGA = 0 or 1), percent: 40%
[2]; LTB (TWT#128095) genotype CC
  No success (IGA ≧ 2), number of individuals: 8
  No success (IGA ≧ 2), percent: 44%
  Success (IGA = 0 or 1), number of individuals: 10
  Success (IGA = 0 or 1), percent: 56%
[2]; Pharmacogenomics samples
  Efficacy (IGA): number of patients that experienced efficacy: 13
  Efficacy (IGA): percent of patients that experienced efficacy: 52%
[2]; Trial subjects
  Efficacy (IGA): number of patients that experienced efficacy: 27
  Efficacy (IGA): percent of patients that experienced efficacy: 40%
[2]; [12]
  No success (IGA ≧ 2), number of individuals: 2
  No success (IGA ≧ 2), percent: 20%
  Success (IGA = 0 or 1), number of individuals: 8/10 and 8
  Success (IGA = 0 or 1), percent: 80%
[2]; [13]
  No success (IGA ≧ 2), number of individuals: 9
  No success (IGA ≧ 2), percent: 69%
  Success (IGA = 0 or 1), number of individuals: 4/13 and 4
  Success (IGA = 0 or 1), percent: 31%
[2]; [9]
  No success (IGA ≧ 2), number of individuals, Total: 11
  Success (IGA = 0 or 1), number of individuals, Total: 13
[2]; [10]
  No success (IGA ≧ 2), number of individuals, Total: 11
  Success (IGA = 0 or 1), number of individuals, Total: 13
[2]; all LTB (TWT#128095) genotypes
  No success (IGA ≧ 2), number of individuals, Total: 11
  Success (IGA = 0 or 1), number of individuals, Total: 12
[2]; [14]
  No success (IGA ≧ 2), number of individuals, Total: 11
  Success (IGA = 0 or 1), number of individuals, Total: 12
